{
  "source": "patent US20240299326A1",
  "about": "“METHODS AND COMPOSITIONS FOR TREATING CANCER” (Onconova Therapeutics, Inc., priority 2021, published 2024)",
  "key": {"RDEB SCC keratinocytes": {"system": "RDEB SCC keratinocytes", "assay": "Cell death of RDEB SCC keratinocytes after 48 hours exposure, crystal violet staining / phase contrast", "format": "cell-based", "protocol": "(§1) Panel A. Cells were seeded at high density and exposed to Rigosertib or vehicle control for 48 hours after which cells were fixed and stained with crystal violet. Panel B. Phase contrast images of unfixed cells in culture after given treatment of either control (left) or Rigosertib (1 μM, right)."}, "[1]": {"system": "normal primary keratinocytes", "assay": "Effect on normal primary keratinocytes after 48 hours exposure, crystal violet staining / phase contrast", "format": "cell-based", "details": "FIG. 1", "protocol": "as §1"}, "SCC RDEB16 keratinocytes": {"system": "SCC RDEB16 keratinocytes", "assay": "Tumor xenograft of SCC RDEB16 keratinocytes, tumor volume by calipers", "format": "in vivo, Balb/c SCID mice", "details": "subcutaneous inoculation; dosing after tumors reached 100 mm^3, administered 6 times; harvested day 35; FIG. 2", "protocol": "SCC RDEB16 keratinocytes were inoculated subcutaneously to Balb/c SCID mice. After tumors reached 100 mm^3, vehicle control, Rigosertib or Compound 1 (ATP-competitive inhibitor) were administered 6 times and tumor volume was measured with calipers. Tumors were harvested and photographed at day 35."}, "[2]": {"system": "RDEB-associated locally advanced/metastatic squamous cell carcinoma (SCC)", "assay": "Phase 2 open-label single arm clinical study, tumor response (RECIST, MRI, clinical exam, histology)", "format": "in vivo, patients", "description": "The study had two primary endpoints. […] The second primary endpoint was to evaluate the safety and tolerability of rigosertib in the population. Secondary study endpoints included quality of life and a biomarker analysis performed on archival tissue from all patients. Patients were dosed for up to one year, with trial duration anticipated to be approximately two-and-a-half years.\nIntravenous dosing: For continuous IV infusion as Rigosertib, sodium salt concentrate, 75 mg/mL, was formulated to contain 75 mg of Rigosertib sodium salt per mL (equivalent to 75 mg of Rigosertib sodium per mL) as a sterile solution in polyethylene glycol 400 (PEG 400) containing a small amount of sodium hydroxide for pH adjustment. Rigosertib.Na 75 mg/mL was packaged in single-use glass vials with Teflon-lined rubber stoppers containing 24 mL of drug product (1800 mg). Just prior to dosing, the Rigosertib concentrate (i.e. 1 glass vial, 24 mL) was diluted to a final volume of 500 ml in 0.9% sodium chloride for injection.\nEfficacy Assessments: Overall response rate (ORR) was defined as the proportion of patients who achieved either a CR or a PR. Responses of complete remission (CR), partial remission (PR), mCR, SD, failure, and PD were determined by RECIST criteria. The number and percent of patients with CR, PR, mCR, SD, Failure or PD were summarized.\nResponse per RECIST criteria: Efficacy assessments included an initial tumor assessment at week 12 (±3 days) after first dose. Further tumor assessments were completed every 12 weeks (±3 days). Study evaluations were performed according to RECIST 1.1 criteria. High resolution CT with oral or IV contrast or contrast-enhanced MRI were used as imaging modalities for assessing radiographic tumor response. Screening/Baseline assessments were within 4 weeks of first dose of study drug. Brain MRI was used as an imaging method for evaluating CNS metastasis, and an assessment was required during screening/baseline and End of Therapy or as clinically indicated.\nTarget lesions: When more than one measurable lesion was present at baseline, all lesions up to a maximum of 5 lesions total (and a maximum of two lesions per site), representative of all involved sites, were investigated as target lesions and are recorded and measured at baseline. Target lesions were selected on the basis of size (lesions with the longest diameter) and were representative of all involved sites. A sum of the diameters (longest for non-nodal lesions, short axis for nodal lesions) for all target lesions were calculated and reported as the baseline sum diameters. If lymph nodes were included in the sum, only the short axis was added into the sum. The baseline sum diameters were used as reference to characterize any objective tumor regression in the measurable dimension of the disease. […]"}, "[3]": {"assay": "Phase 2 open-label single arm clinical study, safety and tolerability", "format": "in vivo, patients", "details": "single RDEB patient, CIV infusions", "protocol": "A phase 2, open-label single arm was conducted. The study was designed to assess the efficacy and safety of Rigosertib in patients with recessive dystrophic epidermolysis bullosa (RDEB)-associated locally advanced/metastatic squamous cell carcinoma (SCC).\nIn addition to the assessment of safety and tolerability, efficacy was measured by the overall response rate as assessed by RECIST. Patients were treated until RECIST progression criteria were met (i.e. 20% increase in tumor diameter or appearance of new malignant lesions) for 12 consecutive months or until an unacceptable toxicity or intolerance, or until remission.\nThe study had two primary endpoints. The first was to determine the anti-tumor activity of rigosertib in RDEB patients with advanced SCC who had failed prior standard of care through the overall response rate (ORR), defined as the proportion of patients who achieved either a complete response (CR) or a partial response (PR). The second primary endpoint was to evaluate the safety and tolerability of rigosertib in the population. Secondary study endpoints included quality of life and a biomarker analysis performed on archival tissue from all patients. Patients were dosed for up to one year, with trial duration anticipated to be approximately two-and-a-half years. […]"}, "[4]": {"details": "one RDEB patient, intravenous rigosertib, 12 week MRI and clinic visit"}},
  "note": "Entries after “also recorded” stand apart in the source; their conditions may differ.",
  "data": [
    {"smiles": "COc1cc(OC)c(/C=C/S(=O)(=O)Cc2ccc(OC)c(NCC(=O)O)c2)c(OC)c1", "note": "[Rigosertib, (E)-2-(5-((2,4,6-trimethoxystyrylsulfonyl)methyl)-2-methoxyphenylamino)acetic acid]", "values": [
      {"measurement": "cell death in RDEB SCC keratinocytes", "setting": "RDEB SCC keratinocytes; 48 hours exposure, Rigosertib 1 μM in phase contrast images, FIG. 1", "value": "induces cell death"},
      {"measurement": "specificity / therapeutic window separating tumor and normal cells", "setting": "RDEB SCC keratinocytes; preclinical models, RDEB SCC keratinocytes vs normal cells", "value": "largest therapeutic window separating tumor and normal cells"},
      {"measurement": "effect on normal primary keratinocytes", "setting": "[1]", "value": "without affecting normal primary keratinocytes"},
      {"measurement": "tumor growth (tumor volume) of RDEB SCC keratinocytes in vivo", "setting": "SCC RDEB16 keratinocytes", "value": "inhibits RDEB SCC keratinocyte grown in vivo"},
      {"measurement": "metastatic disease after trial completion", "setting": "[2]; RDEB patient, 17 treatment cycles", "value": "without signs of metastatic disease"},
      {"measurement": "remission of target lesions after trial completion", "setting": "[2]; RDEB patient, 72 hr CIV infusions 1800 mg/24 h days 1-3, 17 treatment cycles", "value": "sustained clinical and histological remission of all target lesions"},
      {"measurement": "histology of biopsied target lesions (left hand, right elbow)", "setting": "[2]; V25 (day 169-175)", "value": "no histological signs of malignancy"},
      {"measurement": "resolution of squamous cell target lesions (left hand), clinical exam and MRI", "setting": "[2]; [4]", "value": "complete resolution of two of three squamous cell target lesions"},
      {"measurement": "third target lesion (right elbow)", "setting": "[2]; [4]", "value": "reduction in the third target lesion"},
      {"measurement": "observed adverse effects", "setting": "[3]", "value": "CTCAE grade II irritative cystitis; also recorded: alopecia; also recorded: recurrent episode of bacteriaemia; also recorded: nausea; also recorded: increased lesional pain; also recorded: amenorrhea"},
      {"measurement": "safety and tolerability", "setting": "[3]", "value": "favorable"}
    ]}
  ]
}
